Earlier results in US20220073443A1, “CANNABINOID FORMULATIONS AND METHODS OF MAKING SAME” (BOTANECO INC., priority 2018, published 2022).

Details: consumed by smoking marihuana; average

SMILES: CCCCCc1cc(O)c2c(c1)OC(C)(C)[C@@H]1CCC(C)=C[C@@H]21 [Δ^9-THC, Δ^9-tetrahydrocannabinol]
- bioavailability of pulmonary-delivered Δ9-THC: ~30%
